From patent US6531148B1, “Therapeutic agents” (Takara Shuzo Co., Ltd., priority 1998, dated 2003)
Where two headings read alike, the source gives them in different places.

Columns and labels:
[1] = system: α-glucosidase from rat small intestine mucous membrane; assay: α-Glucosidase inhibition test (crude enzyme from rat small intestine); type: biochemical; conditions: for relative activity: control without DGE = 100%
Method: (2) A crude enzyme preparation of α-glucosidase from rat small intestine mucous membrane [prepared according to the method as described in Arne Dahlqvist, Anal. Biochem., 7:18-25 (1964)] was used to measure the activity of inhibiting α-glucosidase of DGE as follows.
For the enzymatic reaction, 80 μl of a solution of sucrose, maltose, treharose or soluble starch as a substrate in 10 mM phosphate buffer (pH 7.0) buffer at a final concentration of 100 mM (0.5% for soluble starch) was added to 10 μl of a test sample solution appropriately diluted with the same buffer. 10 μl of the crude enzyme solution prepared from rat small intestine was added thereto. The mixture was reacted at 37° C. for 20 minutes.
The enzymatic reaction was assessed by adding 3 ml of a reagent for glucose measurement (Wako Pure Chemical Industries) to the reaction mixture, reacting at 37° C. for 5 minutes and then measuring the absorbance at 505 nm as the glucose content in the mixture.
The inhibitory activity of DGE on the digestion of each substrate by α-glycosidase was measured using DGE at four different concentrations according to the above-mentioned method. The activity of inhibiting α-glycosidase was expressed as a relative activity (%) defining the activity of the control without DGE as 100%.

[2] = system: DSEK cells; assay: Antirheumatic activity test (DSEK cell growth, WST-1); type: cell-based, human; conditions: for antirheumatic activity (growth inhibition of rheumatoid cells) / IC50: DSEK cells; for IC50: Homo sapiens, read-out: concentration that results in the inhibition of the growth of half-cells (IC50)
Method: DSEK cell is a fibroblast cell line established from a synovial membrane of a human patient with chronic rheumatism and is held at Department of Second Internal Medicine, Integrated Medical Center, Saitama Collage of Medicine as an in vitro rheumatoid model. DSEK cells were cultured in Iscov-MEM medium (IMDM: Gibco-BRL) containing 10% FBS (Bio Whittaker) at 37° C. in the presence of 5% CO2 to confluence. The cells were suspended in the same medium at a concentration of 3×10^4 cells/ml using a trypsin-EDTA solution (Bio Whittaker). 200 μl of the suspension was dispensed into each well of a 96-well microtiter plate (Falcon). After culturing for 5 to 7 days at which time the cells grew to 80% confluence, the medium was changed to 200 μl of the above-mentioned medium containing DGE at a 25, 50, 75, 100, 200 or 400 μM.
After incubating for 24 or 72 hours, 10 μl of Premix WST-1 (Takara Shuzo, MK400) was added to the well. The mixture was reacted at 37° C. for 3.5 hours. The degree of cell growth was expressed by a value obtained by subtracting the absorbance at 650 nm (A650) from the absorbance at 450 nm (A450).

[3] = system: 70-kDa heat shock protein; assay: Heat shock protein induction test; type: cell-based; parameters: key to Induction of heat shock protein: − means that no induction was observed; + represents the induction level. Increased number of + means increased induction; + +: + represents the induction level. Increased number of + means increased induction; + + +: + represents the induction level. Increased number of + means increased induction; + + + +: + represents the induction level. Increased number of + means increased induction; conditions: HL-60 cells; for activity of inducing heat shock protein: 70-kDa heat shock protein; for Induction of heat shock protein: 6 hours
Method: 5 ml of RPMI 1640 medium containing 10% fetal bovine serum and HL-60 cells at a concentration of 2×10^5 cells/ml was placed in each well of a 6-well plate. The plate was incubated at 37° C. for 24 hours in the presence of 5% CO2. DGE at a final concentration of 0, 6.25, 12.5, 25, 50 or 100 μM was then added thereto. The incubation was continued for additional 6 hours.
After cultivation, the cell number was counted.
The cells were harvested by centrifugation, washed with PBS to prepare DGE-treated cells. Cells that were cultured in the same manner after heated at 45° C. for 10 minutes were also prepared.
These treated cells were used for SDS-PAGE according to the method as described in Molecular Cloning [Cold Spring Harbor Laboratory Press (1989)]. The treated cells were suspended in SDS-PAGE Sample buffer at a concentration of 2.5×10^6 cells/ml. The cell suspensions were treated at 100° C. for 10 minutes. 5 μl each of the cell suspensions was applied to two SDS-PAGE gels (5% stacking gel, 10% separation gel) and electrophoresed. One of the gels was subjected to Coomassie staining. The other gel was blotted onto a polyvinylidene difluoride transfer membrane [Immobilon™, Millipore, Cat. # IPVH000-10]. The membrane was blocked at 4° C. overnight using Block Ace (Dainippon Pharmaceutical, Cat. # UK-B25).
The blocked membrane was reacted with a monoclonal antibody HSP72/73(Ab-1) (Oncogene Research Products, Cat. # HSP01), which specifically reacts with heat-inducible 70-kDa heat shock protein. The membrane was washed with TBS containing 0.05% Tween 20 followed by TBS. The membrane was then reacted with a peroxidase-conjugated secondary antibody HRT-rabbit anti-mouse IgG (H+L) (Zymed Laboratories, Inc., Cat. # 61-6520), and then washed as described above. The membrane reacted with the primary and secondary antibodies was reacted with a chemiluminol reagent, Renaissance™ (Dupont NEN, Cat. # NEL-100). The membrane was then exposed to an X-ray film to confirm the induction of 70-kDa heat shock protein.

## O=C1C=CC(CO)OC1O [DGE, L-glycero-1,5-epoxy-1αβ,6-dihydroxy-cis-hex-3-en-2-one]
[1]; substrate Maltose, DGE 0.2 mM
  relative activity: 96%
[1]; substrate Maltose, DGE 0.5 mM
  relative activity: 97%
[1]; substrate Maltose, DGE 1.0 mM
  relative activity: 100%
[1]; substrate Maltose, DGE 2.0 mM
  relative activity: 96%
[1]; substrate Soluble starch, DGE 0.2 mM
  relative activity: 100%
[1]; substrate Soluble starch, DGE 0.5 mM
  relative activity: 95%
[1]; substrate Soluble starch, DGE 1.0 mM
  relative activity: 91%
[1]; substrate Soluble starch, DGE 2.0 mM
  relative activity: 92%
[1]; substrate Treharose, DGE 0.2 mM
  relative activity: 98%
[1]; substrate Treharose, DGE 0.5 mM
  relative activity: 96%
[1]; substrate Treharose, DGE 1.0 mM
  relative activity: 99%
[1]; substrate Treharose, DGE 2.0 mM
  relative activity: 100%
[2]; DGE 25 μM, culture period 24 hours, 0 μM 3.98
  Degree of cell growth (A450-650): 3.86
[2]; DGE 25 μM, culture period 72 hours, 0 μM 3.94
  Degree of cell growth (A450-650): 3.33
[2]; DGE 50 μM, culture period 24 hours, 0 μM 3.98
  Degree of cell growth (A450-650): 3.24
[2]; DGE 50 μM, culture period 72 hours, 0 μM 3.94
  Degree of cell growth (A450-650): 3.25
[2]; DGE 100 μM, culture period 24 hours, 0 μM 3.98
  Degree of cell growth (A450-650): 2.88
[2]; DGE 100 μM, culture period 72 hours, 0 μM 3.94
  Degree of cell growth (A450-650): 2.05
[2]; DGE 200 μM, culture period 24 hours, 0 μM 3.98
  Degree of cell growth (A450-650): 1.26
[2]; DGE 200 μM, culture period 72 hours, 0 μM 3.94
  Degree of cell growth (A450-650): 0.48
[2]; DGE 400 μM, culture period 24 hours, 0 μM 3.98
  Degree of cell growth (A450-650): 0.71
[2]; DGE 400 μM, culture period 72 hours, 0 μM 3.94
  Degree of cell growth (A450-650): 0.35
[2]
  antirheumatic activity (growth inhibition of rheumatoid cells): the growth of the rheumatoid cells was strongly inhibited
[2]; at 24 hours
  IC50: 207 µM
[2]; at 72 hours
  IC50: 112 µM
[3]
  activity of inducing heat shock protein: the induction of 70-kDa heat shock protein by DGE was observed
[3]; 6.25 μM DGE
  Induction of heat shock protein: +
[3]; 12.5 μM DGE
  Induction of heat shock protein: +
[3]; 25.0 μM DGE
  Induction of heat shock protein: + +
[3]; 50.0 μM DGE
  Induction of heat shock protein: + + +
[3]; 100 μM DGE
  Induction of heat shock protein: + + + +

## O=C1C=CC(CO)OC1O [κ-DGE, D-glycero-1,5-epoxy-1αβ,6-dihydroxy-cis-hex-3-en-2-one]
[1]
  activities of inhibiting α-glycosidase: also exhibited similar activities of inhibiting α-glycosidase
[2]
  antirheumatic activity (growth inhibition of rheumatoid cells): also exhibited similar activities
[3]
  activity of inducing heat shock protein: also exhibited similar activities of inducing heat shock protein

## 5-L-glutathion-S-yl-2-hydroxy-3,7-dioxabicyclo[2.2.2]octan-1-ol [DGE-GSH]
[1]
  activities of inhibiting α-glycosidase: also exhibited similar activities of inhibiting α-glycosidase
[2]
  antirheumatic activity (growth inhibition of rheumatoid cells): also exhibited similar activities
[3]
  activity of inducing heat shock protein: also exhibited similar activities of inducing heat shock protein
